The source of these data is patent US20250064760A1, “INTRACANALICULAR INSERT COMPRISING A NON-STEROIDAL ANTI-INFLAMMATORY AGENT” (OCULAR THERAPEUTIX, INC., priority 2022, published 2025).

In brackets after ≈: the same amount, converted by molar mass. Several values for one entry are separate records, joined by “and”; a condition that tells them apart may be missing. Identical values can stand only once.

The conditions of series [1]: cited from earlier work.
The conditions of series [2]: aqueous suspension at 0.1%; cited from earlier work.
The next series in a line: Nepafenac solubility. It is filed as physicochemical. The following applies: aqueous buffer; PBS, pH 7.2 at 37° C. How it is done: Nepafenac is a monocarboxylic acid amide that is amfenac in which the carboxylic acid group has been converted into the corresponding carboxamide. Nepafenac is yellow crystalline or powdery substance practically insoluble in water (14 mcg/mL). Nepafenac is soluble in organic solvents such as ethanol, DMSO, and dimethyl formamide (DMF). The solubility of nepafenac in ethanol is approximately 0.5 mg/mL and approximately 30 mg/ml in DMSO and DMF. An aqueous suspension at 0.1% gives an average pH of 6.75. The coefficient partition n-octanol/water is 128. […] Nepafenac is an achiral substance and there are no possible variations in the stereochemical configuration.
Nepafenac solubility testing in PBS, pH 7.2 at 37° C. is approximately 102 mcg/mL.

The conditions of series [3]: cited from earlier work. The source holds these as a separate data set.
Series [4] concerns the target T1, cyclooxygenase-2 (COX-2) enzyme (Homo sapiens, UniProt P35354).
T1 sequence (P35354 18-604): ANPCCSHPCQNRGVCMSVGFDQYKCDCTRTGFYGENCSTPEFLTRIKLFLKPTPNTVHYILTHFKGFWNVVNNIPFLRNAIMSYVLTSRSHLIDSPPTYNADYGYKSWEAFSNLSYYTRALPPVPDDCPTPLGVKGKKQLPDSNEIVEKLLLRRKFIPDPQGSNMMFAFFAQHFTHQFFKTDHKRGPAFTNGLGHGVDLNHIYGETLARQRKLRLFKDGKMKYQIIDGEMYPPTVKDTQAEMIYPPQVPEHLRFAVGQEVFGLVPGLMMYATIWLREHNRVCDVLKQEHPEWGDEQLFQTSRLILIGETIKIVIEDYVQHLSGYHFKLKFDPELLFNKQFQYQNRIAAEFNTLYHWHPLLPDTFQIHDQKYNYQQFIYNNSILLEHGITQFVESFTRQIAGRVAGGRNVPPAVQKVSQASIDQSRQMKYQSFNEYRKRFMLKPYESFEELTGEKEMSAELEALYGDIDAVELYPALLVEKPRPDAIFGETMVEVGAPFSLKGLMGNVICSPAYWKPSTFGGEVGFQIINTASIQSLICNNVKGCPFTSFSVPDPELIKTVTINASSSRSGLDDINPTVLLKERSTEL
The following applies: Walters et al., 2007; cited from earlier work.

One may read the solubility as the dissolved amount per volume that the medium holds. A high value points to much dissolved substance. In general, IC50 refers to the concentration that inhibits the measured activity by half.

On to `NC(=O)Cc1cccc(C(=O)c2ccccc2)c1N` [Nepafenac, 2-(2-amino-3-benzoylphenyl)acetamide], for which, in series [1] (DMF), the “solubility in DMF” value is “approximately 30 mg/ml”. For the same molecule, the “solubility in DMSO” value in series [1] (DMSO) is given as “approximately 30 mg/ml”. The solubility in ethanol entry in series [1] (ethanol) is “approximately 0.5 mg/mL”. The solubility in water in series [1] (water) is 0.014 mg/mL (≈ 55.1 µM). For the same molecule, the “average pH of aqueous suspension” value in series [2] was 6.75. In addition, the solubility in the series “Nepafenac solubility” is ~0.102 mg/mL (≈ 401 µM). Moreover, the coefficient partition n-octanol/water in series [3] was 128.

Regarding `Nc1c(CC(=O)O)cccc1C(=O)c1ccccc1` [amfenac], the IC50 in series [4] is ~1.76 nM and 1.76 nM.
